According to US12534514B2, “Biological and synthetic molecules inhibiting respiratory syncytial virus infection” (Fraunhofer-Gesellschaft zur Förderung der angewandten …, priority 2019, dated 2026):
Square brackets hold non-standard residues; d marks the D form. Tyr(3,5-I2) = N[C@@H](Cc1cc(I)c(O)c(I)c1)C(=O)O; Chg = N[C@H](C(=O)O)C1CCCCC1; Cpa = not defined here

Tests used:
[1] = tested on: RSV (ATCC VR-26—Long strain); assay: RSV plaque reduction assay on human epithelial cells (HEp-2); assay type: cell-based
Method: FIG. 1: Scheme of the used inhibition experiments. RSV-plaque reduction assay on human epithelial cells (HEp-2). HEp-2 cells were seeded in 96-well plate 24 h prior to infection (left). Next day, cells were infected with RSV (middle, white arrow). Simultaneously, peptides at concentrations of 20 μM were added to the cells (middle, black arrow). The inhibitory activity was determined 48 post infection by counting viral plaques after immunocytochemical staining using RSV-specific monoclonal antibody (right, black-checked arrow).
The designed peptides were synthesized and screened for their inhibitory activity against RSV in a cell culture-based plaque reduction assay as illustrated in FIG. 1. In detail, Anti-RSV activity was assessed in plaque reduction assay as follows: HEp-2 cells were seeded in a 96-well plate 24 h prior to infection. […] The inhibitory activity was determined 48 h post infection by counting viral plaques after immunocytochemical staining using RSV-specific monoclonal antibody.
Anti-RSV activity was assessed in plaque reduction assay. […] The inhibitory activity was determined 48 h post infection by counting viral plaques after immunocytochemical staining using RSV-specific antibody.
In detail, anti-RSV activity was assessed in plaque reduction assay. […] Viral plaques were counted after immunocytochemical staining using RSV-specific antibody at 48 h after infection. […]

active RSV = assay: ELISA binding of DNA-peptide construct to RSV; details: peptides coupled to DNA; FIG. 6B
Excerpt: FIG. 6: Binding of novel DNA-Peptide construct to RSV. […] The single compounds are not in a representative scale. TMB=3,3′,5,5′-Tetramethylbenzidine, HRP=Horseradish peroxidase. […] “Only Anti-RSV antibody” and “Anti-RSV antibody+RSV” represent internal ELISA controls and lack components described in FIG. 6A. The other three samples have all components described in FIG. 6A. Each bar results from the mean values of triplicates±SD.
Binding of newly developed peptides 6 (Ac-[Chg][Cpa]VSTT[Tyr3,5-I2]LPHYFDN-NH2) and 12 (Ac-[Chg][Nle][Chg]STTYLPHYFDN-NH2) to active RSV was verified by enzyme-linked immunosorbent assay (FIG. 6).
FIG. 6A illustrates the scheme of the used ELISA. It has to be noted that the single compounds are not in a representative scale. […] Unspecific binding of RSV and/or RSV-antibody to neutravidin was excluded by using the two other controls.

Row | Substance | inhibition of infection with RSV on human epithelial cells ([1]; concentration of 20 μM, RSV Long, 48 h post infection, FIG. 3B) [%] | inhibition of infection with RSV on human epithelial cells (screen of truncated peptides, FIG. 2) ([1]; peptides at 20 μM added simultaneously with RSV, plaques counted 48 h post infection) | binding to active RSV (ELISA) (active RSV)
1 | LVVSTTYLPHYFDN (Ac-LVVSTTYLPHYFDN-NH2) | > 50 | able to inhibit infection with RSV | 
2 | Ac-[Chg][Cpa]VSTT[Tyr3,5-I2]LPHYFDN-NH2 (Ac-[Chg][Cpa]VSTT[Tyr(3,5-I2)]LPHYFDN-NH2; reading uncertain; also: printed as Ac-[Chg][Cpa]VSTT[Tyr3,5-I2]LPHYFDN-NH2) [peptide 6] |  |  | verified
3 | Ac-[Chg][Nle][Chg]STTYLPHYFDN-NH2 (XXXSTTYLPHYFDN; HELM PEPTIDE1{[ac].[O=C([C@@H](N[*:1])C1CCCCC1)[*:2]].[Nle].[O=C([C@@H](N[*:1])C1CCCCC1)[*:2]].S.T.T.Y.L.P.H.Y.F.D.N.[am]}$$$$V2.0; SMILES CCCC[C@H](NC(=O)[C@@H](NC(C)=O)C1CCCCC1)C(=O)N[C@H](C(=O)N[C@@H](CO)C(=O)N[C@H](C(=O)N[C@H](C(=O)N[C@@H](Cc1ccc(O)cc1)C(=O)N[C@@H](CC(C)C)C(=O)N1CCC[C@H]1C(=O)N[C@@H](Cc1c[nH]cn1)C(=O)N[C@@H](Cc1ccc(O)cc1)C(=O)N[C@@H](Cc1ccccc1)C(=O)N[C@@H](CC(=O)O)C(=O)N[C@@H](CC(N)=O)C(N)=O)[C@@H](C)O)[C@@H](C)O)C1CCCCC1) [peptide 12] |  |  | verified
